{
  "source": "patent US20040121931A1",
  "about": "“Aqueous perborate bleach composition” (Unilever Home & Persona Care USA, Division of Conopco, Inc., priority 2002, published 2004)",
  "test": "Iterative determination of perborate solubility in water and polyol/water (visual)",
  "type": "physicochemical",
  "procedure": "An iterative process was used to determine the extent of perborate solubilty in water and polyol/water. 1.5 g of Na perborate monohydrate was added either to 100 g of water (Table 1A) or to 90 g water and 10 g sorbitol (70% active) (Table 1B). The mixture was stirred until all of sodium perborate monohydrate was dissolved. A 0.5 g aliquot of sodium perborate monohydrate was then added to the solution while stirring and visually monitored to see if all the added sodium perborate monohydrate dissolves. If the aliquot dissolved, another 0.5 g of sodium perborate monohydrate would be added. This procedure was continued until the added perborate no longer appeared to dissolve.",
  "key": {"[1]": {"details": "1.50 g in 90 g water + 10 g sorbitol (70%), perborate/sorbitol 1/3.55"}, "[2]": {"details": "3.50 g in 90 g water + 10 g sorbitol (70%), perborate/sorbitol 1/1.01"}, "[3]": {"details": "5.50 g in 90 g water + 10 g sorbitol (70%), perborate/sorbitol 1.43/1"}, "[4]": {"details": "8.00 g in 90 g water + 10 g sorbitol (70%), perborate/sorbitol 2.09/1"}, "[5]": {"details": "8.50 g in 90 g water + 10 g sorbitol (70%), perborate/sorbitol 2.22/1"}, "[6]": {"details": "9.50 g in 90 g water + 10 g sorbitol (70%), perborate/sorbitol 2.49/1"}},
  "data": [
    {"smiles": "O.O=BO[O-].[Na+]", "note": "[Sodium Perborate monohydrate, sodium perborate monohydrate]", "values": [
      {"measurement": "Appearance", "setting": "[1]", "result": "Clear solution"},
      {"measurement": "pH", "setting": "[1]", "result": 8.30},
      {"measurement": "Appearance", "setting": "1.5 g in 100 g water", "result": "Clear solution"},
      {"measurement": "pH", "setting": "1.5 g in 100 g water", "result": 10.00},
      {"measurement": "Appearance", "setting": "2.0 g in 100 g water", "result": "Precipitate formed"},
      {"measurement": "pH", "setting": "2.0 g in 100 g water", "result": 10.06},
      {"measurement": "Appearance", "setting": "[2]", "result": "Clear solution"},
      {"measurement": "pH", "setting": "[2]", "result": 9.33},
      {"measurement": "Appearance", "setting": "[3]", "result": "Clear solution"},
      {"measurement": "pH", "setting": "[3]", "result": 9.56},
      {"measurement": "Appearance", "setting": "[4]", "result": "Clear solution"},
      {"measurement": "pH", "setting": "[4]", "result": 9.60},
      {"measurement": "Appearance", "setting": "[5]", "result": "Precipitate"},
      {"measurement": "pH", "setting": "[5]", "result": 9.60},
      {"measurement": "Appearance", "setting": "[6]", "result": "Precipitate"},
      {"measurement": "pH", "setting": "[6]", "result": 9.60},
      {"measurement": "solubility in water, in the presence of polyol", "setting": "90 g water and 10 g sorbitol (70% active)", "result": "up to 8.5 g"},
      {"measurement": "increase of solubility of perborate by polyol", "setting": "aqueous environment, with sorbitol vs without", "result": "about 400%"},
      {"measurement": "solubility in water", "setting": "in 100 g water, no polyol", "result": "below 2.0 g"}
    ]}
  ]
}
